Reference: patent publication US20130072531A1, “SOLID DISPERSION COMPRISING AN ANTI-HIV AGENT” (AiCuris GmbH & Co. KG, priority 2009, published 2013)

Experiments:
[1] = Storage experiments, visual inspection; assay type: physicochemical; conditions: open vials, 2 weeks (3 weeks Comparative Example 1), 25° C., 60% RH and 40° C., 75% RH
Method: The spray dried particles were collected in a reservoir attached to a cyclone, cooled down to room temperature and stored in sealed vials (room temperature, ambient relative humidity (RH)) prior to their characterisation at T0. After characterisation at T0, the spray dried solids were stored in open vials for 2 weeks (3 weeks for Comparative Example 1) in desiccators at 25° C., 60% RH and 40° C., 75% RH.

[2] = Solubility studies: dissolution, paddle method, sodium laurylsulphate 0.5% (w/v) medium; assay type: physicochemical
Method: The compound of formula (I) both in crystalline form and spray dried (at T0 and after 3 weeks […]) storage at 25° C., 60% RH and 40° C., 75% RH respectively) as well as the solid dispersions of Examples 1 to 4 (at T0 and after 2 weeks […]) storage at 25° C., 60% RH and 40° C., 75% RH respectively) and Example 5 at T0 only were introduced in a VK 7000 dissolution system (VanKel, New Jersey, USA), using the paddle method, combined with a VK 8000 automatic sampling station (n=3). Sodium laurylsulphate 0.5% (w/v) was used as dissolution medium. The temperature of the medium (900 ml) was kept at 37±0.5 ° C., while the rotational speed of the paddles was set at 100 rpm. Samples (filtered using Full Flow Filters (Varian) -35 μm) of 5 ml were withdrawn at 5, 10, 15, 20, 30, 45 and 60 min and spectrophotometrically analysed at 240 nm by UV-spectrophotometry, type UV-1650 (Shimadzu, Deurne, Belgium) (w/w dilution if necessary), using an appropriate calibration curve. Each vessel contained approximately 150 mg of the compound of formula (I).

[3] = X-ray diffraction of solid dispersions at T0 and after storage; assay type: physicochemical; conditions: after 3 weeks at 40° C., 75% RH
Method: The spray dried particles were collected in a reservoir attached to a cyclone, cooled down to room temperature and stored in sealed vials (room temperature, ambient relative humidity (RH)) prior to their characterisation at T0. After characterisation at T0, the spray dried solids were stored in open vials for 2 weeks (3 weeks for Comparative Example 1) in desiccators at 25° C., 60% RH and 40° C., 75% RH. X-ray diffraction (D-500, Siemens, Germany) with CuKα radiation (0.154 nm) was performed on physical mixtures of the compound of formula (I) with HPMC ES, HPC LF, HPMCP HP-50 and PVP K30 and the corresponding solid dispersions (at T0 and after 2 weeks […]) storage at both conditions), as well as spray dried compound of formula (I) without polymer (storage for three weeks under the two conditions). The angular range (2θ) varied from 15 to 60° with steps of 0.02° and the measuring time was 1 s/step.

[4] = system: wild-type and resistant HIV strains; test: Activity against HIV strains (experiences so far)
[5] = Water solubility of crystals (experiences so far); assay type: physicochemical

| Structure (SMILES) | storage stability to visual inspection (colouration) [1] | compound of formula (I) dissolved after 60 minutes after storage ([2]; after storage at 40° C., 75% RH for three weeks, 60 min) [%] | compound of formula (I) dissolved / released after 30 minutes ([2]; fresh (T0), sodium laurylsulphate 0.5% (w/v), 900 ml, 37 °C, 100 rpm, 30 min) | formation of the crystalline form of the compound of formula (I) (X-ray) [3] | compound of formula (I) dissolved / released after 60 minutes ([2]; fresh (T0), sodium laurylsulphate 0.5% (w/v), 900 ml, 37 °C, 100 rpm, 60 min) | activity against wild-type and resistant HIV strains [4] | water solubility of crystals [5] |
| --- | --- | --- | --- | --- | --- | --- | --- |
| O=C1CN(C(=O)c2cc(-c3cc(F)cc(Cl)c3)n(-c3ccc(F)c(Cl)c3)n2)CN1 [Comparative Example 1] | storage stable | 35 | about 60% | formation of a large amount of the crystalline form | – | – | – |
| O=C1CN(C(=O)c2cc(-c3cc(F)cc(Cl)c3)n(-c3ccc(F)c(Cl)c3)n2)CN1 [compound of formula (I)] | – | – | – | – | about 40% | highly active | only sparingly water-soluble |
